ChEMBL document CHEMBL4689842, “EUbOPEN Chemogenomics Library wave 1” (2021)

Legend:
Format in all cases: toxicity, cell-based
U2OS = test: Incucyte cell viability with U2OS; conditions: human, 10 µM, compound concentration 10 uM
HEK-293T = test: Incucyte cell viability with HEK293T; conditions: human, 10 µM, compound concentration 10 uM
Fibroblast = test: Incucyte cell viability with human fibroblast; conditions: 10 µM, compound concentration 10 uM
[1] = 0 h, replicate number 1, timepoint 0 hours
[2] = 6 h, replicate number 1, timepoint 6 hours
[3] = 12 h, replicate number 1, timepoint 12 hours
[4] = 12 h, replicate number 2, timepoint 12 hours
[5] = 18 h, replicate number 1, timepoint 18 hours
[6] = 18 h, replicate number 2, timepoint 18 hours
[7] = 24 h, replicate number 1, timepoint 24 hours
[8] = 24 h, replicate number 2, timepoint 24 hours
[9] = 6 h, replicate number 2, timepoint 6 hours
[10] = 0 h, replicate number 2, timepoint 0 hours
Further: filed as whole numbers so only -1 and 0 and 1 occur.

Compound	Growth Rate (U2OS; [1])	Growth Rate (U2OS; [3])	Growth Rate (U2OS; [4])	Growth Rate (U2OS; [5])	Growth Rate (U2OS; [6])	Growth Rate (U2OS; [7])	Growth Rate (HEK-293T; [1])	Growth Rate (HEK-293T; [2])	Growth Rate (HEK-293T; [9])	Growth Rate (HEK-293T; [3])	Growth Rate (HEK-293T; [5])	Growth Rate (HEK-293T; [7])	Growth Rate (Fibroblast; [1])	Growth Rate (Fibroblast; [2])	Growth Rate (Fibroblast; [3])	Growth Rate (Fibroblast; [5])	Growth Rate (Fibroblast; [7])	Growth Rate (Fibroblast; [8])	Growth Rate (U2OS; [9])	Growth Rate (Fibroblast; [4])	other results
C[C@@H](N)Cc1c[nH]cn1.Cl.Cl	1	0	1	0	1	0	0	1	0	1	1	1	1	0	0	0	0	1	–	–	Growth Rate (U2OS; [2]): 0; Growth Rate (U2OS; [8]): 1; Growth Rate (HEK-293T; [4]): 0; Growth Rate (HEK-293T; [6]): 0; Growth Rate (HEK-293T; [8]): 0; Growth Rate (Fibroblast; [10]): 0
CCC(=O)NC1Cc2ccccc2C(c2ccccc2)C1 (stereo not drawn)	0	1	–	1	0	0	0	1	0	0	0	0	0	0	0	0	0	–	0	–	–
CC(C)C[C@H](NC(=O)N1CCCCCC1)C(=O)N[C@H](Cc1cn(C)c2ccccc12)C(=O)N[C@H](Cc1ccccn1)C(=O)O	0	–	1	1	–	1	0	0	1	0	1	1	0	–	–	1	1	0	1	0	Growth Rate (HEK-293T; [4]): 1; Growth Rate (Fibroblast; [9]): 0
CC(C)c1ccc(CC(=O)N2CCC[C@@H](c3cccc(OC(C)(C)C(=O)O)c3)C2)cc1	0	–	1	1	–	1	1	0	1	1	0	0	–	0	1	0	0	–	0	0	Growth Rate (HEK-293T; [10]): 0; Growth Rate (HEK-293T; [8]): 1
Cc1cc2c(cc1-c1cc(/C=C/C(=O)O)ccc1O)C(C)(C)CCC2(C)C	0	1	0	1	0	1	0	1	–	1	1	1	0	–	1	1	1	–	0	–	–
C/C(=N\NC(=O)[C@@H]1C(=O)NC[C@H]1c1ccccc1)c1cccc(Br)c1	0	1	0	0	–	0	1	0	–	0	0	0	1	0	0	0	1	0	–	–	Growth Rate (U2OS; [2]): 0; Growth Rate (HEK-293T; [10]): 0
COc1cc(OC)c(NC(=O)c2ccc(Cc3cc4c(cc3C)C(C)(C)CCC4(C)C)o2)c(OC)c1	0	1	–	1	–	0	1	0	1	0	0	0	0	0	–	1	1	–	1	1	Growth Rate (HEK-293T; [10]): 0
Cc1c(C2=CCN(C(=O)N(C)C(C)C)CC2)nnn1-c1cccnc1F	0	1	–	1	–	1	0	1	–	1	0	1	1	0	0	0	0	1	0	1	Growth Rate (HEK-293T; [6]): 1; Growth Rate (Fibroblast; [10]): 0; Growth Rate (Fibroblast; [6]): 1
